Test results from US5440016A, “Peptides of the formula (KFmoc) ZZZ and their uses” (priority 1993, dated 1995).
Converted amounts (≈) assume the structure as drawn. Square brackets hold non-standard residues; d marks the D form. Peptide text beside a SMILES is read from it. * marks the point of attachment. Fmoc = O=C(OCC1c2ccccc2-c2ccccc21)*; GABA = NCCCC(=O)O

system: Human red blood cells (RBCs); test: Hemolytic activity; assay type: cell-based; conditions: Tables 18-21
Procedure: Each assay was carried out in 96-well culture tissue plates. Four wells per plate contain 125 μl of a non-peptide positive control (1% Triton in de-ionized water), and four wells per plate contain 125 μl of a control blank, phosphate buffered saline (PBS). The hemolytic peptide melittin was used as comparative control. The controls served to detect possible contamination and to calculate the percent hemolysis of each peptide. Human red blood cells (RBCs) were washed with PBS and centrifuged to separate them from the serum. The cells were then resuspended in PBS to a final suspension of 0.5% RBC. 125 μl of this suspension was added to the peptides and controls solution. The release of hemoglobin resulting from the cell lysis was determined by measuring the OD at 414 nm of 100 μl of the supernatant.

Compound	HD50 (concentration necessary to lyse 50% of the cells)
NCCCC[C@H](NC(=O)OCC1c2ccccc2-c2ccccc21)C(=O)N[C@@H](Cc1c[nH]c2ccccc12)C(=O)N[C@@H](Cc1ccc(O)cc1)C(=O)N[C@H](CC(N)=O)C(N)=O [(KFmoc)WYn-NH2] (Fmoc-KWY[dN]-NH2)	257 µg/mL
CC[C@@H](C)[C@@H](NC(=O)[C@@H](CS)NC(=O)[C@H](CCCCN)NC(=O)OCC1c2ccccc2-c2ccccc21)C(=O)NCCCC(N)=O [(KFmoc)ci(gABA)-NH2] (Fmoc-K[dC][dI][GABA]-NH2)	54 µg/mL
CC[C@@H](C)[C@@H](NC(=O)[C@@H](CS)NC(=O)[C@H](CCCCN)NC(=O)OCC1c2ccccc2-c2ccccc21)C(=O)N[C@@H](C)C(N)=O [(KFmoc)ciA-NH2] (Fmoc-K[dC][dI]A-NH2)	68 µg/mL
CC[C@@H](C)[C@@H](NC(=O)[C@@H](CS)NC(=O)[C@H](CCCCN)NC(=O)OCC1c2ccccc2-c2ccccc21)C(=O)N[C@@H](CS)C(N)=O [(KFmoc)ciC-NH2] (Fmoc-K[dC][dI]C-NH2)	400 µg/mL
CC[C@@H](C)[C@@H](NC(=O)[C@@H](CS)NC(=O)[C@H](CCCCN)NC(=O)OCC1c2ccccc2-c2ccccc21)C(=O)N[C@@H](Cc1ccccc1)C(N)=O [(KFmoc)ciF-NH2] (Fmoc-K[dC][dI]F-NH2)	295 µg/mL
CC[C@@H](C)[C@@H](NC(=O)[C@@H](CS)NC(=O)[C@H](CCCCN)NC(=O)OCC1c2ccccc2-c2ccccc21)C(=O)N[C@H](C)C(N)=O [(KFmoc)cia-NH2] (Fmoc-K[dC][dI][dA]-NH2)	77 µg/mL

target: melittin (Apis mellifera, UniProt P01501); test: cell-based; conditions: read-out: IC50, inhibition of melittin (converted)
Sequence (P01501 44-69 limits assumed): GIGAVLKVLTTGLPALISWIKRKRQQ

Compound	IC50
Ac-FDIWFE-NH2 [Ac-FDIWFE-NH2]	185 µM
Ac-FDIWFK-NH2 [Ac-FDIWFK-NH2]	128 µM
Ac-FDIYCE-NH2 [Ac-FDIYCE-NH2]	229 µM
Ac-FDIYFE-NH2 [Ac-FDIYFE-NH2]	1050 µM
Ac-FIIWCE-NH2 [Ac-FIIWCE-NH2]	4 µM
Ac-FIIWFE-NH2 [Ac-FIIWFE-NH2]	6.03 µM
Ac-FIIWFK-NH2 [Ac-FIIWFK-NH2]	1450 µM
Ac-FIIYCE-NH2 [Ac-FIIYCE-NH2]	5.68 µM
Ac-FIIYFE-NH2 [Ac-FIIYFE-NH2]	7.8 µM
Ac-FIIYFK-NH2 [Ac-FIIYFK-NH2]	419 µM
Ac-FQIWCE-NH2 [Ac-FQIWCE-NH2]	10.9 µM
Ac-FQIWFE-NH2 [Ac-FQIWFE-NH2]	9.01 µM
Ac-FQIYCE-NH2 [Ac-FQIYCE-NH2]	16.6 µM
Ac-FQIYFE-NH2 [Ac-FQIYFE-NH2]	21.4 µM
Ac-IDIWCE-NH2 [Ac-IDIWCE-NH2]	978 µM
Ac-IDIWCK-NH2 [Ac-IDIWCK-NH2]	130 µM
Ac-IDIYCE-NH2 [Ac-IDIYCE-NH2]	361 µM
Ac-IDIYFE-NH2 [Ac-IDIYFE-NH2]	355 µM
Ac-IDIYFK-NH2 [Ac-IDIYFK-NH2]	918 µM
Ac-IIIWCE-NH2 [Ac-IIIWCE-NH2]	5.51 µM
Ac-IIIWFE-NH2 [Ac-IIIWFE-NH2]	6.27 µM
Ac-IIIYCE-NH2 [Ac-IIIYCE-NH2]	15.1 µM
Ac-IIIYFE-NH2 [Ac-IIIYFE-NH2]	5.85 µM
Ac-IQIWCE-NH2 [Ac-IQIWCE-NH2]	6.73 µM

Compound	IC50
Ac-IQIWFE-NH2 [Ac-IQIWFE-NH2]	24 µM
Ac-IQIYCE-NH2 [Ac-IQIYCE-NH2]	5.93 µM
Ac-IQIYCK-NH2 [Ac-IQIYCK-NH2]	1310 µM
Ac-IQIYFE-NH2 [Ac-IQIYFE-NH2]	19.9 µM
Ac-IVIFFA-NH2 [Ac-IVIFFA-NH2]	33.3 µM
Ac-IVIFFC-NH2 [Ac-IVIFFC-NH2]	92.1 µM
Ac-IVIFFD-NH2 [Ac-IVIFFD-NH2]	12.6 µM
Ac-IVIFFE-NH2 [Ac-IVIFFE-NH2]	17.3 µM
Ac-IVIFFF-NH2 [Ac-IVIFFF-NH2]	205 µM
Ac-IVIFFG-NH2 [Ac-IVIFFG-NH2]	29.9 µM
Ac-IVIFFH-NH2 [Ac-IVIFFH-NH2]	36.8 µM
Ac-IVIFFI-NH2 [Ac-IVIFFI-NH2]	105 µM
Ac-IVIFFK-NH2 [Ac-IVIFFK-NH2]	> 310 µM
Ac-IVIFFL-NH2 [Ac-IVIFFL-NH2]	140 µM
Ac-IVIFFM-NH2 [Ac-IVIFFM-NH2]	25.9 µM
Ac-IVIFFN-NH2 [Ac-IVIFFN-NH2]	22.7 µM
Ac-IVIFFP-NH2 [Ac-IVIFFP-NH2]	49 µM
Ac-IVIFFQ-NH2 [Ac-IVIFFQ-NH2]	32.2 µM
Ac-IVIFFR-NH2 [Ac-IVIFFR-NH2]	> 299 µM
Ac-IVIFFS-NH2 [Ac-IVIFFS-NH2]	27.4 µM
Ac-IVIFFT-NH2 [Ac-IVIFFT-NH2]	30.8 µM
Ac-IVIFFV-NH2 [Ac-IVIFFV-NH2]	38.6 µM
Ac-IVIFFW-NH2 [Ac-IVIFFW-NH2]	18.5 µM

system: Staphylococcus aureus ATCC 29213; test: not given; conditions: Tables 6-9

Compound	IC50 against S. aureus
NCCCC[C@H](NC(=O)OCC1c2ccccc2-c2ccccc21)C(=O)N[C@@H](Cc1c[nH]c2ccccc12)C(=O)N[C@@H](Cc1ccc(O)cc1)C(=O)N[C@H](CC(N)=O)C(N)=O [(KFmoc)WYn-NH2] (Fmoc-KWY[dN]-NH2)	6 µg/mL (≈ 7.22 µM)

system: Streptococcus sanguis ATCC 10556; test: not given; conditions: Tables 10-13

Compound	IC50 against S. sanguis
NCCCC[C@H](NC(=O)OCC1c2ccccc2-c2ccccc21)C(=O)N[C@@H](Cc1c[nH]c2ccccc12)C(=O)N[C@@H](Cc1ccc(O)cc1)C(=O)N[C@H](CC(N)=O)C(N)=O [(KFmoc)WYn-NH2] (Fmoc-KWY[dN]-NH2)	8 µg/mL (≈ 9.63 µM)
CC[C@@H](C)[C@@H](NC(=O)[C@@H](CS)NC(=O)[C@H](CCCCN)NC(=O)OCC1c2ccccc2-c2ccccc21)C(=O)N[C@H](C)C(N)=O [(KFmoc)cia-NH2] (Fmoc-K[dC][dI][dA]-NH2)	59 µg/mL (≈ 90.1 µM)
